# Assays:
# Assay type in all cases: in vivo, human
# [1] = tested on: Patients with Type 2 Diabetes Insufficiently Controlled with Insulin Glargine with or without Metformin; assay: Body weight, 26-week study; conditions: for Body weight, Change from baseline to Week 26 (LOCF), LS Mean (SE) / Body weight change to Week 26, LS Mean difference (SE) of Lixisenatide vs. the labelled insulin glulisine arm: ANCOVA; for Body weight, Change from baseline to Week 26 (LOCF), LS Mean (SE) / Body weight change to Week 26, LS Mean difference (SE) of Lixisenatide vs. the labelled insulin glulisine arm / Body weight, Baseline, Mean (SD) / Body weight, Baseline, Median / Body weight, Week 26 (LOCF), Mean (SD) / Body weight, Week 26 (LOCF), Median / Body weight, Change from baseline to Week 26 (LOCF), Mean (SD) / Body weight, Change from baseline to Week 26 (LOCF), Median: mITT population; for Body weight change to Week 26, LS Mean difference (SE) of Lixisenatide vs. the labelled insulin glulisine arm: p <.0001; for Body Weight, BL mean ± SD / Body Weight, Week 26 (LOCF) mean ± SD / Body Weight, LS mean ± SE change from BL / Body Weight, LS mean treatment difference (lixisenatide vs the labelled arm): mITT, Example 2 table; for Body weight, Baseline, Mean (SD) / Body weight, Baseline, Median: Baseline (before IMP); for Body Weight, LS mean ± SE change from BL / Body Weight, LS mean treatment difference (lixisenatide vs the labelled arm): Week 26; for Body Weight, LS mean treatment difference (lixisenatide vs the labelled arm): p < 0.0001
# Source text: (§1) FIG. 6—Graphical study design. ^1 Insulin glargine should be injected subcutaneously once daily at dinner or breakfast time (according to patient's/investigators' preference). […] Meal used for insulin glulisine dosing should remain the same throughout the 26-week treatment period. ^4 Injection of insulin glulisine prior to breakfast, lunch and dinner.
# (§2) Co-primary endpoints at 26 weeks were (1) non-inferiority (95% CI upper bound <0.4%) in HbA1c reduction with LIXI vs GLU-1 and (2) for LIXI vs GLU-3, either non-inferiority in HbA1c reduction (2a) OR superiority (one-sided α≤0.025) in body weight change (2b). FPG, PPG, IG dose, composite outcomes, AEs, and hypoglycemia were assessed.
# [2] = tested on: Patients with Type 2 Diabetes Insufficiently Controlled with Insulin Glargine with or without Metformin; assay: Fasting plasma glucose, 26-week study; conditions: for Fasting plasma glucose change to Week 26, LS Mean difference (SE) of Lixisenatide vs. the labelled insulin glulisine arm / Fasting plasma glucose, Change from baseline to Week 26 (LOCF), LS Mean (SE): ANCOVA; for Fasting plasma glucose change to Week 26, LS Mean difference (SE) of Lixisenatide vs. the labelled insulin glulisine arm / Fasting plasma glucose, Change from baseline to Week 26 (LOCF), LS Mean (SE) / Fasting plasma glucose, Baseline, Mean (SD) / Fasting plasma glucose, Baseline, Median / Fasting plasma glucose, Week 26 (LOCF), Mean (SD) / Fasting plasma glucose, Week 26 (LOCF), Median / Fasting plasma glucose, Change from baseline to Week 26 (LOCF), Mean (SD) / Fasting plasma glucose, Change from baseline to Week 26 (LOCF), Median: mITT population; for FPG, BL (end run-in) mean ± SD / FPG, Screening (start run-in) mean ± SD / FPG, Week 26 (LOCF) mean ± SD / FPG, LS mean treatment difference (lixisenatide vs the labelled arm) / FPG, LS mean ± SE change from BL: mITT; for Fasting plasma glucose, Baseline, Mean (SD) / Fasting plasma glucose, Baseline, Median: Baseline (before IMP); for FPG, LS mean treatment difference (lixisenatide vs the labelled arm) / FPG, LS mean ± SE change from BL: Week 26
# Source text: as §1, §2
# [3] = tested on: Patients with Type 2 Diabetes Insufficiently Controlled with Insulin Glargine with or without Metformin; assay: 2-h PPG post test meal, 26-week study; conditions: subset of mITT treated before breakfast; for 2-h PPG post test meal, LS mean treatment difference (lixisenatide vs the labelled arm) / 2-h PPG post test meal, LS mean ± SE change from BL: Week 26
# Method: as §2
# [4] = tested on: Patients with Type 2 Diabetes Insufficiently Controlled with Insulin Glargine with or without Metformin; assay: Insulin dose (insulin glargine, insulin glulisine), 26-week study; conditions: for Insulin glargine dose change to Week 26, LS Mean difference (SE) of Lixisenatide vs. the labelled insulin glulisine arm / Insulin glargine dose, Change from baseline to Week 26 (LOCF), LS Mean (SE): ANCOVA; for Insulin glargine dose change to Week 26, LS Mean difference (SE) of Lixisenatide vs. the labelled insulin glulisine arm / Insulin glargine dose, Change from baseline to Week 26 (LOCF), LS Mean (SE) / Insulin glargine dose, Baseline, Mean (SD) / Insulin glargine dose, Baseline, Median / Insulin glargine dose, Week 26 (LOCF), Mean (SD) / Insulin glargine dose, Week 26 (LOCF), Median / Insulin glargine dose, Change from baseline to Week 26 (LOCF), Mean (SD) / Insulin glargine dose, Change from baseline to Week 26 (LOCF), Median: mITT population; for Insulin glargine dose, Baseline, Mean (SD) / Insulin glargine dose, Baseline, Median: Baseline (before IMP); for Insulin Glargine dose, LS mean + SE change from BL / Insulin Glargine dose, LS mean treatment difference (lixisenatide vs the labelled arm): Week 26
# Source text: as §1, §2
# [5] = tested on: Patients with Type 2 Diabetes Insufficiently Controlled with Insulin Glargine with or without Metformin; conditions: for Reason for treatment discontinuation: Lack of efficacy: Randomized population, HbA1c above […] at Week 12 or later; for Reason for treatment discontinuation: Adverse event: human, in vivo
substance,measurement,setting,value
"Insulin Glulisine QD: insulin glulisine once daily, added to insulin glargine ± metformin (comparator arm)","Body weight, Change from baseline to Week 26 (LOCF), LS Mean (SE)",[1],1.03 (0.276) kg
same,"Body weight change to Week 26, LS Mean difference (SE) of Lixisenatide vs. the labelled insulin glulisine arm",[1],−1.66 (0.305) kg
same,"Body Weight, BL mean ± SD",[1],88.4 ± 15.9 kg
same,"Body weight, Baseline, Mean (SD)",[1],88.37 (15.88) kg
same,"Body weight, Baseline, Median",[1],88.00 kg
same,"Body weight, Week 26 (LOCF), Mean (SD)",[1],89.31 (16.27) kg
same,"Body weight, Week 26 (LOCF), Median",[1],88.40 kg
same,"Body Weight, Week 26 (LOCF) mean ± SD",[1],89.3 ± 16.3 kg
same,"Body Weight, LS mean ± SE change from BL",[1],1.0 ± 0.3 kg
same,"Body Weight, LS mean treatment difference (lixisenatide vs the labelled arm)",[1],-1.7 kg
same,"Body weight, Change from baseline to Week 26 (LOCF), Mean (SD)",[1],0.94 (2.50) kg
same,"Body weight, Change from baseline to Week 26 (LOCF), Median",[1],0.90 kg
same,"Fasting plasma glucose change to Week 26, LS Mean difference (SE) of Lixisenatide vs. the labelled insulin glulisine arm",[2],−0.01 (0.157) mmol/L
same,"Fasting plasma glucose, Change from baseline to Week 26 (LOCF), LS Mean (SE)",[2],−0.21 (0.142) mmol/L
same,"FPG, BL (end run-in) mean ± SD",[2],123 ± 36 mg/dL
same,"Fasting plasma glucose, Baseline, Mean (SD)",[2],6.85 (1.99) mmol/L
same,"Fasting plasma glucose, Baseline, Median",[2],6.50 mmol/L
same,"FPG, Screening (start run-in) mean ± SD",[2],167 ± 52 mg/dL
same,"FPG, Week 26 (LOCF) mean ± SD",[2],120 ± 35 mg/dL
same,"Fasting plasma glucose, Week 26 (LOCF), Mean (SD)",[2],6.66 (1.94) mmol/L
same,"Fasting plasma glucose, Week 26 (LOCF), Median",[2],6.40 mmol/L
same,"FPG, LS mean treatment difference (lixisenatide vs the labelled arm)",[2],0 mg/dL
same,"FPG, LS mean ± SE change from BL",[2],-4 ± 3 mg/dL
same,"Fasting plasma glucose, Change from baseline to Week 26 (LOCF), Mean (SD)",[2],−0.19 (2.52) mmol/L
same,"Fasting plasma glucose, Change from baseline to Week 26 (LOCF), Median",[2],-0.10 mmol/L
same,"2-h PPG post test meal, BL (end run-in) mean ± SD",[3],249 ± 63 mg/dL
same,"2-h PPG post test meal, Week 26 (LOCF) mean ± SD",[3],220 ± 60 mg/dL
same,"2-h PPG post test meal, LS mean treatment difference (lixisenatide vs the labelled arm)",[3],-37 mg/dL
same,"2-h PPG post test meal, LS mean ± SE change from BL",[3],-28 ± 11 mg/dL
same,"Insulin glargine dose change to Week 26, LS Mean difference (SE) of Lixisenatide vs. the labelled insulin glulisine arm",[4],0.76 (1.104) U
same,"Insulin glargine dose, Change from baseline to Week 26 (LOCF), LS Mean (SE)",[4],−0.06 (0.999) U
same,"Insulin Glargine dose, BL (end run-in) mean ± SD",[4]; mITT,65 ± 32 U/day
same,"Insulin glargine dose, Baseline, Mean (SD)",[4],64.79 (32.09) U
same,"Insulin glargine dose, Baseline, Median",[4],58.00 U
same,"Insulin Glargine dose, Screening (start run-in) mean ± SD","[4]; Screening (start run-in), mITT",40 ± 22 U/day
same,"Insulin Glargine dose, Week 26 (LOCF) mean ± SD",[4]; mITT,64 ± 36 U/day
same,"Insulin glargine dose, Week 26 (LOCF), Mean (SD)",[4],63.89 (35.67) U
same,"Insulin glargine dose, Week 26 (LOCF), Median",[4],54.00 U
same,"Insulin Glargine dose, LS mean + SE change from BL",[4]; mITT,−0.1 ± 1.0 U/day
same,"Insulin Glargine dose, LS mean treatment difference (lixisenatide vs the labelled arm)",[4]; mITT,0.8 U/day
same,"Insulin glargine dose, Change from baseline to Week 26 (LOCF), Mean (SD)",[4],−0.91 (13.41) U
same,"Insulin glargine dose, Change from baseline to Week 26 (LOCF), Median",[4],−1.33 U
same,Reason for treatment discontinuation: Lack of efficacy,[5],4 (1.3%) n (%)
same,Reason for treatment discontinuation: Adverse event,[5],2 (0.7%) n (%)
"Insulin Glulisine TID: insulin glulisine three times daily, added to insulin glargine ± metformin (comparator arm)","Body weight, Change from baseline to Week 26 (LOCF), LS Mean (SE)",[1],1.37 (0.271) kg
same,"Body weight change to Week 26, LS Mean difference (SE) of Lixisenatide vs. the labelled insulin glulisine arm",[1],−1.99 (0.305) kg
same,"Body Weight, BL mean ± SD",[1],90.0 ± 17.2 kg
same,"Body weight, Baseline, Mean (SD)",[1],90.00 (17.21) kg
same,"Body weight, Baseline, Median",[1],88.70 kg
same,"Body weight, Week 26 (LOCF), Mean (SD)",[1],91.29 (17.27) kg
same,"Body weight, Week 26 (LOCF), Median",[1],90.50 kg
same,"Body Weight, Week 26 (LOCF) mean ± SD",[1],91.3 ± 17.3 kg
same,"Body Weight, LS mean ± SE change from BL",[1],1.4 ± 0.3 kg
same,"Body Weight, LS mean treatment difference (lixisenatide vs the labelled arm)",[1],-2.0 kg
same,"Body weight, Change from baseline to Week 26 (LOCF), Mean (SD)",[1],1.29 (2.80) kg
same,"Body weight, Change from baseline to Week 26 (LOCF), Median",[1],1.20 kg
same,"Fasting plasma glucose change to Week 26, LS Mean difference (SE) of Lixisenatide vs. the labelled insulin glulisine arm",[2],−0.17 (0.158) mmol/L
same,"Fasting plasma glucose, Change from baseline to Week 26 (LOCF), LS Mean (SE)",[2],−0.06 (0.140) mmol/L
same,"FPG, BL (end run-in) mean ± SD",[2],120 ± 34 mg/dL
same,"Fasting plasma glucose, Baseline, Mean (SD)",[2],6.65 (1.89) mmol/L
same,"Fasting plasma glucose, Baseline, Median",[2],6.40 mmol/L
same,"FPG, Screening (start run-in) mean ± SD",[2],171 ± 53 mg/dL
same,"FPG, Week 26 (LOCF) mean ± SD",[2],121 ± 36 mg/dL
same,"Fasting plasma glucose, Week 26 (LOCF), Mean (SD)",[2],6.71 (2.02) mmol/L
same,"Fasting plasma glucose, Week 26 (LOCF), Median",[2],6.50 mmol/L
same,"FPG, LS mean treatment difference (lixisenatide vs the labelled arm)",[2],-3 mg/dL
same,"FPG, LS mean ± SE change from BL",[2],-1 ± 3 mg/dL
same,"Fasting plasma glucose, Change from baseline to Week 26 (LOCF), Mean (SD)",[2],0.05 (2.47) mmol/L
same,"Fasting plasma glucose, Change from baseline to Week 26 (LOCF), Median",[2],-0.20 mmol/L
same,"2-h PPG post test meal, BL (end run-in) mean ± SD",[3],262 ± 63 mg/dL
same,"2-h PPG post test meal, Week 26 (LOCF) mean ± SD",[3],229 ± 69 mg/dL
same,"2-h PPG post test meal, LS mean treatment difference (lixisenatide vs the labelled arm)",[3],-40 mg/dL
same,"2-h PPG post test meal, LS mean ± SE change from BL",[3],-25 ± 11 mg/dL
same,"Insulin glargine dose change to Week 26, LS Mean difference (SE) of Lixisenatide vs. the labelled insulin glulisine arm",[4],3.83 (1.106) U
same,"Insulin glargine dose, Change from baseline to Week 26 (LOCF), LS Mean (SE)",[4],−3.13 (0.982) U
same,"Insulin Glargine dose, BL (end run-in) mean ± SD",[4]; mITT,65 ± 27 U/day
same,"Insulin glargine dose, Baseline, Mean (SD)",[4],65.05 (27.01) U
same,"Insulin glargine dose, Baseline, Median",[4],60.67 U
same,"Insulin Glargine dose, Week 26 (LOCF) mean ± SD",[4]; mITT,61 ± 29 U/day
same,"Insulin glargine dose, Week 26 (LOCF), Mean (SD)",[4],61.16 (29.33) U
same,"Insulin glargine dose, Week 26 (LOCF), Median",[4],57.00 U
same,"Insulin Glargine dose, LS mean + SE change from BL",[4]; mITT,−3.1 ± 1.0 U/day
same,"Insulin Glargine dose, LS mean treatment difference (lixisenatide vs the labelled arm)",[4]; mITT,3.9 U/day
same,"Insulin glargine dose, Change from baseline to Week 26 (LOCF), Mean (SD)",[4],−3.89 (13.28) U
same,"Insulin glargine dose, Change from baseline to Week 26 (LOCF), Median",[4],−4.00 U
same,Reason for treatment discontinuation: Lack of efficacy,[5],0 n (%)
same,Reason for treatment discontinuation: Adverse event,[5],5 (1.7%) n (%)

# From patent publication US10434147B2, “Treatment type 2 diabetes mellitus patients” (Sanofi-Aventis Deutschland GmbH, priority 2015, dated 2019)
